The values that follow come from US12226450B2, “Peptides and methods for treating disease” (OP-T LLC, priority 2019, dated 2025).

Where no end group is shown, it is not given here.

One data set has as its system CD4+ and CD8+ cells. Kind of data set: CD4/CD8 ratio in blood of peptide-treated NOD mice by flow cytometry. The class given is in vivo, mouse. Conditions: 25 ug tail vein weekly. The protocol:
(§1) Peptides were designed based on the amino acid sequence of mouse CD154 protein (SEQ ID NO:1) in the SwissPro database. […] Weekly after the initial injection, another 25 ug of peptide (or 100 ul of PBS in the case of the Control mice) was injected into the tail vein. At 10 weeks of age, mice were monitored for diabetes, as indicated by a blood glucose level greater than 250 mg/dL for three consecutive days. During this time, blood was also taken from the tail vein, or by sub-mandibular venal puncture, and the level of CD4+ and CD8+ cells determined by flow cytometry using antibodies for CD4 protein and CD8 protein.

Data set [1] relates to CD3+CD4+CD40+(Th40) splenic cells. The experiment in a line: Inflammatory cytokines in cultured Th40 splenic cells from ApoE−/− mice. Format: cell-based, mouse. Conditions: overnight culture, varying concentrations, compared to the untreated cells. The protocol: FIG. 24 provides a graph showing that different concentrations of peptide of SEQ ID NO:46 affects or influences levels of IL-2, IFNγ, and IL-17A. In this study, CD3+CD4+CD40+(Th40) splenic cells were purified from ApoE^−/− with cardiovascular disease. The cells were cultured overnight in the absence/presence of varying concentrations of KGYY6 peptide.

Data set [2] has as its system NOD mice. Kind of data set: Development of diabetes in NOD mice treated with CD154 peptide fragments. The conditions noted are these: 25 ug (1 mg/kg) tail vein weekly from 6 weeks of age; diabetes = blood glucose greater than 250 mg/dL for three consecutive days. The class given is in vivo, mouse. The protocol: as §1
The subject of the next data set is diabetic dogs. The experiment in a line: Safety in treated diabetic dogs: blood counts, chemistry panels, adverse effects. The class given is in vivo, dog. On the procedure:
Five diabetic dogs including 4 new onset and 1 long-term, (diagnosis greater than 3 years) were recruited into a test case study. The dogs were enrolled at Colorado State University Veterinary Hospital (CSU-VH), Fort Collins, CO for the study. Each dog was assessed by a Board-Certified Veterinarian. Blood samples were collected from each dog and analyzed by chemistry panels to determine general health, as well as assessed by complete physical examination. The dogs were each confirmed diabetic, blood glucose ranging from 300-600 mg/dl but were generally in good health otherwise. One dog was diagnosed with hypertension, and two dogs had eye problems, partial blindness and the long-term dog was completely blind from diabetes.
Breeds were varied and sizes ranged from 8 to 27 kilos. Four of the dogs had been diagnosed for 3 months or less, 1 dog was diagnosed for 3.5 years. All dogs were receiving daily insulin treatments. The route of administration was IV infusion of SEQ ID NO. 13 over 30 minutes at 2 mg/kg on Days 0, 4, 8 and then weekly thereafter for a total of 8 weeks. The dogs were treated with the dog-sequence (SEQ ID NO: 13—VLRWAPKGYYTISSN); acetate salt form; brought up in sterile PBS for injection; injection was done as a slow infusion over 30 minutes. […] The dog diagnosed for 3.5 years experienced an improvement of time-in-range (percentage of a 24-hour period that blood glucose ranged between 80 and 160) from 10% to 80% for 5 consecutive days in the 5th week and achieved this for the last 3 test weeks. Typical responses in all five dogs was that 3-5 days post treatment improvements in blood glucose occurred. For example, blood glucose would move from 400 to 120, remain stable for 2 days but return to elevated levels. In all the treated dogs, glucose spikes were at lower levels, 300 mg/dl as a high, compared to >500 mg/dl prior to treatment. In fact, prior to treatment, none of the dogs recorded blood glucose levels less than 350. During treatment dogs were at 200 mg/dl or lower the majority of the time and in many cases were at 150 mg/dl or less.
Prior to treatment blood samples were analyzed for blood glucose levels and Th40 cell percentages in peripheral blood. These pre-treatment Th40 cell levels and blood glucose levels can be seen in FIGS. 15, 16, and 17. In FIG. 15, controls are blood samples from test beagles used by CSU-VH and were all confirmed non-diabetic (i.e. not diabetic). […] On day 0, prior to the first treatment, blood was collected from leg vein and analyzed for Th40 cell percentages. […] Samples were analyzed for Th40 cells by flow cytometry. Furthermore, isolated blood was processed to obtain lymphocytes. […] The percentage of CD4+CD40+ as a subset of total CD4+ cells was determined and graphed. […]

Data set [3] concerns NOD mice. Kind of data set: Hyperglycemia in diabetic NOD mice treated with KGYY-15. The conditions noted are these: control treatments, blood glucose between 250-400 mg/dl. Format: in vivo, mouse. The protocol: In this study, NOD mice, blood glucose between 250-400 mg/dl were treated with KGYY-15. Control mice were treated with MR1 an anti-CD154 antibody or scrambled 15-mer peptide (SEQ ID NO: 17). KGYY-15 (SEQ ID NO: 11) reduced blood glucose in 57% of mice treated, the controls MR1 and scrambled 15-mer peptide had no effect.

[4] abbreviates: diabetic dogs, IV infusion 2 mg/kg.

For `CSCC[C@H](NC(=O)[C@@H](NC(=O)[C@H](Cc1ccc(O)cc1)NC(=O)[C@H](Cc1ccc(O)cc1)NC(=O)CNC(=O)[C@H](CCCCN)NC(=O)[C@H](CCCCN)NC(=O)[C@H](C)NC(=O)[C@H](Cc1c[nH]c2ccccc12)NC(=O)[C@H](CCC(N)=O)NC(=O)[C@H](CC(C)C)NC(=O)[C@@H](N)C(C)C)[C@@H](C)O)C(=O)N[C@@H](CCCCN)C(=O)N[C@@H](CO)C(=O)N[C@@H](CC(N)=O)C(=O)O` [15-mer peptide, VLQWAKKGYYTMKSN], the “compromise of the immune system, as determined by the CD4/CD8 ratio” value in the data set on CD4+ and CD8+ cells is listed as “did not result in compromise of the immune system”.
On to “AKKGYY (not fully specified (C-terminus)) [KGYY6]”, for which, in data set [1], the IFNγ entry is on record as “varying degrees of reduction”, the IL-2 entry is “varying degrees of reduction” and the IL-17A result is on record as “varying degrees of reduction”.
For the compound “VLQWAKKGYYTMK (not fully specified (C-terminus)) [13-mer peptides]”, the development of diabetes entry in the data set with NOD mice [2] is recorded as “significant effects on the development of diabetes”.
With “VLRWAPKGYYTISSN [SEQ ID NO: 13, VLRWAPKGYYTISSN]”, in the data set on diabetic dogs (setting [4]), the adverse effects result is reported as “None of the dogs experienced any adverse effects”; the chemistry panel numbers entry is on record as “normal”; the “impact on WBC and RBC” value was “no negative impacts”. Further, the “blood chemistry panels versus samples prior to treatment” value in the data set with diabetic dogs (each improved from blood samples prior to treatment) is given as “normal levels on most parameters”.
Regarding “YKNVKQMAYWLTGKS [scrambled 15-mer peptide]”, the “effect on blood glucose” value in the data set with NOD mice [3] is on record as “no effect”.
